From patent US20250171432A1, “COMPOUNDS AND METHODS OF USE” (Tango Therapeutics, Inc., priority 2022, published 2025) come the findings set out here.

Common to all, as to type: cell-based
Assay [1] relates to SDMA (PRMT5 activity) in HAP1 MTAP-deleted cell line. Briefly: SDMA in-cell western assay, HAP1 MTAP-deleted. The conditions noted are these: for IC50 / IC90: Homo sapiens, SDMA in-cell western, HAP1 MTAP-deleted cells, 24 hours compound incubation; for Hap1 MTAP intact/deleted ratio: ratio of SDMA IC50 in HAP1 MTAP-intact to HAP1 MTAP-deleted cell line.
In assay [2] the test system is SDMA (PRMT5 activity) in HAP1 MTAP-intact cell line. Briefly: SDMA in-cell western assay, HAP1 MTAP-intact. The conditions noted are these: Homo sapiens, HAP1, 24 h, SDMA in-cell western, HAP1 MTAP-intact cells, 24 hours compound incubation.
Assay [3] concerns HAP1 MTAP-deleted cell line. Briefly: Viability assay (CellTiter-Glo), HAP1 MTAP-deleted. The conditions noted are these: Homo sapiens, 168 h, HAP1 MTAP-deleted cells, 7 days. Put shortly:
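HAP1 MTAP-deleted and MTAP-intact cells seeded, then dosed next day (n=3, 0.2% DMSO) and grown 7 days. Viability by CellTiter-Glo luminescence, expressed as % of DMSO control per cell line.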
(In general: ATP-based viability assays read luminescence as a measure of living cells.)

Each structure is given as a SMILES string.

As to `COc1ncc(NC(=O)C(=O)N2C[C@@H](C)CC[C@@H]2c2ccc3sc([C@@H](C)N(C)C)nc3c2)cc1C(N)=O` [Compound 25, 2-methoxy-5-[[2-oxo-2-[(2R,5S)-5-methyl-2-[2-[(1R)-1-(dimethylamino)ethyl]-1,3-benzothiazol-5-yl]-1-piperidyl]acetyl]amino]pyridine-3-carboxamide], in assay [1], the IC50 (in general, the concentration at which inhibition is half-maximal) lay in the range of 5 to 50 nM; the IC90 (commonly the point of the concentration-response curve where the effect stands at 90%) lay in the range of 75 to 125 nM; the “Hap1 MTAP intact/deleted ratio” value is listed as “A (“A” indicates an IC50 ratio greater than or equal to 30 fold)”. In assay [2], this compound gave an IC50 of over 50 nM. In assay [3], this compound had an IC50 of under 100 nM.

Regarding `CCc1cc(NC(=O)C(=O)N2C[C@@H](C)CC[C@@H]2c2ccc3cn([C@@H]4CCN(C)C4)nc3c2)cnc1N` [Compound 112, N-(6-amino-5-ethylpyridin-3-yl)-2-((2R,5S)-5-methyl-2-(2-((R)-1-methylpyrrolidin-3-yl)-2H-indazol-6-yl)piperidin-1-yl)-2-oxoacetamide], in assay [1], the IC50 was under 5 nM, the 90% effect concentration (IC90) was under 75 nM and the “Hap1 MTAP intact/deleted ratio” value is recorded as “B (“B” indicates an IC50 ratio greater than or equal to 15 fold but lower than 30 fold)”. The compound further had an IC50 in assay [2] of 5 to 50 nM. Further, in assay [3], the IC50 was under 100 nM.

In the case of `CCc1cc(NC(=O)C(=O)N2C[C@@H](C)CC[C@@H]2c2ccc3c(c2)OC2(CCN(C)CC2)C3)cnc1N` [Compound 31, N-(6-amino-5-ethylpyridin-3-yl)-2-((2R,5S)-5-methyl-2-(1′-methyl-3H-spiro[benzofuran-2,4′-piperidin]-6-yl)piperidin-1-yl)-2-oxoacetamide], in assay [1], the IC50 was in the range of 5 to 50 nM, the IC90 is over 125 nM and the “Hap1 MTAP intact/deleted ratio” value is given as “A (“A” indicates an IC50 ratio greater than or equal to 30 fold)”. The same compound returned an IC50 in assay [2] of over 50 nM. In addition, the IC50 in assay [3] was 100 to 1000 nM.

For `CCc1cc(NC(=O)C(=O)N2C[C@@H](C)CC[C@@H]2c2ccc3sc(C4CN(C)CC(=O)N4C)nc3c2)cnc1N` (mixture of isomers) [Compound 125, N-(6-amino-5-ethylpyridin-3-yl)-2-((2R,5S)-2-(2-(1,4-dimethyl-6-oxopiperazin-2-yl)benzo[d]thiazol-5-yl)-5-methylpiperidin-1-yl)-2-oxoacetamide], the IC50 in assay [1] is 5 to 50 nM; in assay [2] it was over 50 nM; in assay [3], under 100 nM. Moreover, the IC90 in assay [1] was 75 to 125 nM. Besides, the “Hap1 MTAP intact/deleted ratio” value in assay [1] is “B (“B” indicates an IC50 ratio greater than or equal to 15 fold but lower than 30 fold)”.

For the compound `COc1ncc(NC(=O)C(=O)N2C[C@@H](C)CC[C@@H]2c2ccc3cn([C@H]4CCN(C)C4)nc3c2)cc1C(N)=O` [Compound 103, 2-methoxy-5-(2-((2R,5S)-5-methyl-2-(2-((S)-1-methylpyrrolidin-3-yl)-2H-indazol-6-yl)piperidin-1-yl)-2-oxoacetamido)nicotinamide], in assay [1], the IC50 is under 5 nM, the IC90 is under 75 nM and the “Hap1 MTAP intact/deleted ratio” value is recorded as “A (“A” indicates an IC50 ratio greater than or equal to 30 fold)”. In assay [2], this compound showed a concentration for half-maximal inhibition (IC50) of over 50 nM. Besides, the IC50 in assay [3] was under 100 nM.

Regarding `CCc1cc(NC(=O)C(=O)N2C[C@@H](C)CC[C@@H]2c2cccc(OCC3CCCN3C)c2)cnc1N` (relative stereo) [Compound 69, N-(6-amino-5-ethyl-3-pyridyl)-2-oxo-2-[(2R,5S)-5-methyl-2-[3-[[rel-(2R)-1-methylpyrrolidin-2-yl]methoxy]phenyl]-1-piperidyl]acetamide], in assay [1], the IC50 is under 5 nM, the IC90 is under 75 nM and the “Hap1 MTAP intact/deleted ratio” value was “A (“A” indicates an IC50 ratio greater than or equal to 30 fold)”. Moreover, in assay [2], the IC50 is over 50 nM. Also, in assay [3], the IC50 is under 100 nM.
